Measurements published in patent EP3290412A1, “HIV-1 NUCLEOCAPSID INHIBITORS” (Università degli Studi di Siena, priority 2016, dated 2018).

What was measured:
HeLa cells = assay: HeLa Proliferation assay (CellTiter Glo); type: cell-based; details: 72 hours
Method in brief: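 Viability measured with CellTiter Glo after 72 h compound exposure (37 °C, 5% CO2, humidified) of HeLa cells seeded at 2000 per well in 10% FBS DMEM without phenol red and allowed 4 h recovery.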

[1] = system: Peripheral blood mononuclear cells (PBMC); type: cell-based; details: human, 7 days
Method in brief: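 Cytotoxicity measured after 7 days of compound exposure by MTS conversion (OD 490 nm, 4 h). The cells were PHA-activated (5 µg/mL, 2 days) donor PBMC, cultured with 20 IU/mL IL-2 at 1x10^5 cells/well. TD50 is the dose killing 50% versus untreated control, read from the dose-mortality curve.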

[2] = system: HIV-1 reference strain NL4-3; assay: MonoCycle assay (TZM-bl cells); type: cell-based; details: Human immunodeficiency virus 1, NL43, TZM-bl, 48 h, read-out: Mono Cycle IC50 nM
Method in brief: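 TZM-bl cells (20,000/well) were infected with NL4-3 in the presence of five-fold serial inhibitor dilutions. After 48 h, cells were lysed and luciferase luminescence (RLU) was counted. IC50 was derived from the RLU data.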

ARP clone 12465 (PI) = assay: BiCycle assay, resistant viral strain; type: cell-based, HIV-1; details: IC50 resistant strain / IC50 wild type NL4-3, BiCycle Assay
Description: (§1) BiCycle Assay is cell based assay allowing the evaluation of the antiviral activity of HIV-1 inhibitors on the whole replication cycle of HIV-1. The assay consists in a first round of infection of the T-cell line MT-2 followed by infection of TZM-bl cells. MT-2 cells were seeded at a concentration of 50,000 cells/well in a 96-well plate and infected with the HIV-1 reference strain NL4-3 in presence of five-fold dilutions of the investigational compounds. After 72 hours, 50 µl of supernatant from each well, containing the virus produced in the first round of infection, were used to infect TZM-bl cells seeded in a 96-plate well at a concentration of 30,000 cells/well. Two days later, cells were lysed adding 40 µl of Glo Lysis Buffer (Promega) to each well for 5 minutes, then 40 µl of Brighy-Glo Luciferase Reagent (Promega) were added to each well for relative luminescence units (RLU) counting using Glo-Max Multi Detection System (Promega). RLU values from each well were elaborated using the GraphPad v5.0 software to calculate the IC50 of each compound.
(§2) The antiviral activity of some of the compounds listed in Table 3 was further evaluated determining the IC50 with viruses carrying resistant mutations that reduce the susceptibility to drugs currently employed in clinical practice to treat HIV infection. The resistant viruses were obtained through the NIH AIDS Reagent Program (www.aidsreagent.org) and have been already characterized by the Phenosense Assay (Monogram Biosciences), considered as the reference assay for phenotypic investigation of HIV drug resistance due to its large application in clinical trials.
(§3) IC50 values of resistant viral strains were determined by using the BiCycle Assay as previously described. The results of the analysis are summarized in Table 6, where fold change values are calculated as the ratio between the IC50 values of resistant HIV-1 strains and the IC50 value of the wild type reference HIV-1 strain NL4-3. Table 6. Fold change values of resistant viral strains

ARP clone 7400 (NRTI) = assay: BiCycle assay, resistant viral strain; type: cell-based, HIV-1; details: IC50 resistant strain / IC50 wild type NL4-3, BiCycle Assay
Description: as §1, §2, §3

ARP clone 11845 (INI) = assay: BiCycle assay, resistant viral strain; type: cell-based, HIV-1; details: IC50 resistant strain / IC50 wild type NL4-3, BiCycle Assay
Description: as §1, §2, §3

ARP clone 7401 (NRTI) = assay: BiCycle assay, resistant viral strain; type: cell-based, HIV-1; details: IC50 resistant strain / IC50 wild type NL4-3, BiCycle Assay
Description: as §1, §2, §3

ARP clone 11842 (INI) = assay: BiCycle assay, resistant viral strain; type: cell-based, HIV-1; details: IC50 resistant strain / IC50 wild type NL4-3, BiCycle Assay
Description: as §1, §2, §3

| SMILES | Proliferation assay HELA TD50 (HeLa cells) | Proliferation assay PBMC TD50 [1] | IC50 [2] | Fold change 12465 (PI) (ARP clone 12465 (PI)) | Fold change 7400 (NRTI) (ARP clone 7400 (NRTI)) | Fold change 11845 (INI) (ARP clone 11845 (INI)) | TD50 [1] | Fold change 7401 (NRTI) (ARP clone 7401 (NRTI)) | Fold change 11842 (INI) (ARP clone 11842 (INI)) |
| --- | --- | --- | --- | --- | --- | --- | --- | --- | --- |
| O=C(NCC1CCCCC1)c1nc(-c2ccccn2)nc(O)c1O [Compound 1, N-(cyclohexylmethyl)-5,6-dihydroxy-2-(pyridin-2-yl)pyrimidine-4-carboxamide] | 3585.7 nM | 2600 nM | > 50000 nM | 2.9 | 0.4 | 1.2 |  |  |  |
| Cc1cccnc1-c1nc(O)c(O)c(C(=O)N[C@H](C)C2CCCCC2)n1 [Compound 23, (R)-N-(1-cyclohexylethyl)-5,6-dihydroxy-2-(3-methylpyridin-2-yl)pyrimidine-4-carboxamide] | 2333.9 nM | 8900 nM | 88500 nM | 2.3 | 0.7 | 1.2 | 8.9 µM | 1.4 | 8.6 |
| C[C@@H](NC(=O)c1nc(-c2cc(Cl)ccn2)nc(O)c1O)C1CCCCC1 [Compound 26, (R)-2-(4-chloropyridin-2-yl)-N-(1-cyclohexylethyl)-5,6-dihydroxypyrimidine-4-carboxamide] | 3197.7 nM | 2490 nM | 17600 nM | 0.5 | 0.3 | 0.7 |  | 0.1 |  |
| COc1ccnc(-c2nc(O)c(O)c(C(=O)N[C@H](C)C3CCCCC3)n2)c1 [Compound 28, (R)-N-(1-cyclohexylethyl)-5,6-dihydroxy-2-(4-methoxypyridin-2-yl)pyrimidine-4-carboxamide] | 2860.9 nM | 2700 nM | 34300 nM | 3.7 | 0.8 | 2.3 | 2.7 µM | 0.8 | 2.9 |
| C[C@@H](NC(=O)c1nc(-c2nccc3ccccc23)nc(O)c1O)C1CCCCC1 [Compound 31, (R)-N-(1-cyclohexylethyl)-5,6-dihydroxy-2-(isoquinolin-1-yl)pyrimidine-4-carboxamide] | 2070.9 nM | 5000 nM | > 50000 nM | 2.1 | 0.7 | 0.9 | 5 µM | 1.3 | 9.8 |
| COc1ccnc(-c2nc(O)c(O)c(C(=O)NC3CCC(C)(C)CC3)n2)c1 [Compound 77, N-(4,4-dimethylcyclohexyl)-5,6-dihydroxy-2-(4-methoxypyridin-2-yl)pyrimidine-4-carboxamide] | 2257.8 nM | 2200 nM | 17300 nM |  |  |  |  |  |  |
| C[C@H](NC(=O)c1nc(-c2cc(Cl)ccn2)nc(O)c1O)C1CCCCC1 [Compound 78, (S)-2-(4-chloropyridin-2-yl)-N-(1-cyclohexylethyl)-5,6-dihydroxypyrimidine-4-carboxamide] | 2357.6 nM | 1900 nM | 8740 nM |  |  |  |  |  |  |
| Cc1ccnc(-c2nc(O)c(O)c(C(=O)N[C@@H](C)C3CCCCC3)n2)c1 [Compound 79, (S)-N-(1-cyclohexylethyl)-5,6-dihydroxy-2-(4-methylpyridin-2-yl)pyrimidine-4-carboxamide] | 1723.3 nM | 2300 nM | 2350 nM |  |  |  |  |  |  |
| C[C@H](NC(=O)c1nc(-c2nccc3ccccc23)nc(O)c1O)C1CCCCC1 [Compound 80, (S)-N-(1-cyclohexylethyl)-5,6-dihydroxy-2-(isoquinolin-1-yl)pyrimidine-4-carboxamide] | 1611.2 nM | 2000 nM | 2850 nM |  |  |  |  |  |  |
| C[C@H](NC(=O)c1nc(-c2ccc(N)cn2)nc(O)c1O)C1CCCCC1 [Compound 81, (S)-2-(5-aminopyridin-2-yl)-N-(1-cyclohexylethyl)-5,6-dihydroxypyrimidine-4-carboxamide] | 542.5 nM | 1400 nM | 2290 nM |  |  |  |  |  |  |
| CC(NC(=O)c1nc(-c2cc(Cl)ccn2)nc(O)c1O)C1CCC(F)(F)CC1 (stereo not shown) [Compound 87, 2-(4-chloropyridin-2-yl)-N-(1-(4,4-difluorocyclohexyl)ethyl)-5,6-dihydroxypyrimidine-4-carboxamide] | 6158 nM | 3220 nM | > 50000 nM |  |  |  |  |  |  |
| C[C@@H](NC(=O)c1nc(-c2cc(CCN)ccn2)nc(O)c1O)C1CCCCC1 [Compound 88, (R)-2-(4-(2-aminoethyl)pyridin-2-yl)-N-(1-cyclohexylethyl)-5,6-dihydroxypyrimidine-4-carboxamide] | 7133.8 nM | 3250 nM | > 50000 nM |  |  |  |  |  |  |
| CCNS(=O)(=O)c1ccc(-c2nc(O)c(O)c(C(=O)N[C@H](C)C3CCCCC3)n2)nc1 [Compound 89, (R)-N-(1-cyclohexylethyl)-2-(5-(N-ethylsulfamoyl)pyridin-2-yl)-5,6-dihydroxypyrimidine-4-carboxamide] | 12629 nM | 3290 nM | > 50000 nM |  |  |  |  |  |  |
| C[C@@H](NC(=O)c1nc(-c2cc(CCNCc3cccn3C)ccn2)nc(O)c1O)C1CCCCC1 [Compound 91, (R)-N-(1-cyclohexylethyl)-5,6-dihydroxy-2-(4-(2-(((1-methyl-1H-pyrrol-2-yl)methyl)amino)ethyl)pyridin-2-yl)pyrimidine-4-carboxamide] | 1160.4 nM | 1090 nM | 2150 nM |  |  |  |  |  |  |
| C[C@@H](NC(=O)c1nc(-c2cc(CCN(C)C)ccn2)nc(O)c1O)C1CCCCC1 [Compound 92, (R)-N-(1-cyclohexylethyl)-2-(4-(2-(dimethylamino)ethyl)pyridin-2-yl)-5,6-dihydroxypyrimidine-4-carboxamide] | 1168.4 nM | 2020 nM | 6120 nM |  |  |  |  |  |  |
